Key:
Assay in all cases: relative viability (nuclei count vs DMSO), 5 days (fraction); higher = more cells survive
SW 900 = system: SW 900
Summary of the method: (§1)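 After 5 days of treatment, lung cancer cells in 1536-well plates were fixed and stained in a single step (final 0.05% Triton X-100, 1% formaldehyde, 1 ug/ml Hoechst) and their nuclei counted on 4× images. Treatment had been applied by pin tool the day after seeding as one drug alone or as a fixed anchor-drug dose with five library-drug doses (not always all listed) in √10 steps. Relative viability is the nuclei count of treated wells divided by that of vehicle wells, and values are medians of duplicate plates.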

NCI-H2342 = system: NCI-H2342
Summary of the method: as §1

Calu-6 = system: Calu-6
Summary of the method: as §1

NCI-H1703 = system: NCI-H1703
Summary of the method: as §1

NCI-H1299 = system: NCI-H1299
Summary of the method: as §1

A549 = system: A549
Summary of the method: as §1

NCI-H522 = system: NCI-H522
Summary of the method: as §1

IA-LM = system: IA-LM
Summary of the method: as §1

EBC-1 = system: EBC-1
Summary of the method: as §1

NCI-H1648 = system: NCI-H1648
Summary of the method: as §1

For `Cc1cnc(-c2cnc(NCCNc3ccc(C#N)cn3)nc2-c2ccc(Cl)cc2Cl)[nH]1` + O=C(c1cc(Cc2n[nH]c(=O)c3ccccc23)ccc1F)N1CCN(C(=O)C2CC2)CC1 [Olaparib] (partner 8 µM), the relative viability (SW 900; first compound 0.08 µM) was 0.827, the relative viability (SW 900; first compound 0.253 µM) was 0.913 and the relative viability (SW 900; first compound 0.8 µM) was 0.848. For the same molecule, the relative viability (SW 900; first compound 2.53 µM) was 0.561, the relative viability (NCI-H2342; first compound 0.08 µM) was 0.438 and the relative viability (NCI-H2342; first compound 0.253 µM) was 0.387. For the same molecule, the relative viability (NCI-H2342; first compound 0.8 µM) was 0.43, the relative viability (NCI-H2342; first compound 2.53 µM) was 0.439 and the relative viability (Calu-6; first compound 0.08 µM) was 0.532. For the same molecule, the relative viability (Calu-6; first compound 0.253 µM) was 0.547, the relative viability (Calu-6; first compound 2.53 µM) was 0.468 and the relative viability (NCI-H1703; first compound 0.08 µM) was 0.48. The relative viability (NCI-H1703; first compound 0.253 µM) was 0.378, the relative viability (NCI-H1703; first compound 0.8 µM) was 0.448 and the relative viability (NCI-H1703; first compound 2.53 µM) was 0.486. The relative viability (NCI-H1299; first compound 0.08 µM) was 0.953, the relative viability (NCI-H1299; first compound 0.253 µM) was 0.957 and the relative viability (NCI-H1299; first compound 0.8 µM) was 0.968. For the same molecule, the relative viability (NCI-H1299; first compound 2.53 µM) was 0.856, the relative viability (A549; first compound 0.08 µM) was 0.233 and the relative viability (A549; first compound 0.253 µM) was 0.264. The relative viability (A549; first compound 0.8 µM) was 0.288, the relative viability (A549; first compound 2.53 µM) was 0.3 and the relative viability (NCI-H522; first compound 0.08 µM) was 0.641. The relative viability (NCI-H522; first compound 0.253 µM) was 0.668, the relative viability (NCI-H522; first compound 0.8 µM) was 0.681 and the relative viability (NCI-H522; first compound 2.53 µM) was 0.643. For the same molecule, the relative viability (IA-LM; first compound 0.08 µM) was 0.77, the relative viability (IA-LM; first compound 0.253 µM) was 0.766 and the relative viability (IA-LM; first compound 0.8 µM) was 0.87. The relative viability (IA-LM; first compound 2.53 µM) was 0.709, the relative viability (EBC-1; first compound 0.08 µM) was 0.619 and the relative viability (EBC-1; first compound 0.253 µM) was 0.608. The relative viability (EBC-1; first compound 0.8 µM) was 0.673, the relative viability (EBC-1; first compound 2.53 µM) was 0.9 and the relative viability (NCI-H1648; first compound 0.08 µM) was 0.723. For the same molecule, the relative viability (NCI-H1648; first compound 0.253 µM) was 0.761, the relative viability (NCI-H1648; first compound 0.8 µM) was 1.2 and the relative viability (NCI-H1648; first compound 2.53 µM) was 0.865.

`O=c1[nH]c2ccccc2n1C1CCN(CCCC(c2ccc(F)cc2)c2ccc(F)cc2)CC1` [Pimozide] + Nc1ncn([C@H]2C[C@H](O)[C@@H](CO)O2)c(=O)n1 [Decitabine] (partner 2 µM) showed a relative viability (SW 900; first compound 0.08 µM) of 0.451, a relative viability (SW 900; first compound 0.253 µM) of 0.415 and a relative viability (SW 900; first compound 2.53 µM) of 0.548. The relative viability (SW 900; first compound 8 µM) was 0.472, the relative viability (NCI-H2342; first compound 0.08 µM) was 0.698 and the relative viability (NCI-H2342; first compound 0.253 µM) was 0.74. The relative viability (NCI-H2342; first compound 0.8 µM) was 0.715, the relative viability (NCI-H2342; first compound 2.53 µM) was 0.746 and the relative viability (NCI-H2342; first compound 8 µM) was 0.725. For the same molecule, the relative viability (A549; first compound 0.08 µM) was 0.307, the relative viability (A549; first compound 0.253 µM) was 0.208 and the relative viability (A549; first compound 0.8 µM) was 0.211. It also gave a relative viability (A549; first compound 2.53 µM) of 0.312, a relative viability (A549; first compound 8 µM) of 0.199 and a relative viability (NCI-H522; first compound 0.08 µM) of 0.679. For the same molecule, the relative viability (NCI-H522; first compound 0.253 µM) was 0.693, the relative viability (NCI-H522; first compound 0.8 µM) was 0.615 and the relative viability (NCI-H522; first compound 2.53 µM) was 0.698. The relative viability (NCI-H522; first compound 8 µM) was 0.771, the relative viability (NCI-H1648; first compound 0.08 µM) was 0.392 and the relative viability (NCI-H1648; first compound 0.8 µM) was 0.466. For the same molecule, the relative viability (NCI-H1648; first compound 2.53 µM) was 0.55 and the relative viability (NCI-H1648; first compound 8 µM) was 0.517.

`O=C(O)CCCCC(CCSCc1ccccc1)SCc1ccccc1` (centres undefined) [CPI-613] + O=C(c1cc(Cc2n[nH]c(=O)c3ccccc23)ccc1F)N1CCN(C(=O)C2CC2)CC1 [Olaparib] (partner 8 µM) gave a relative viability (SW 900; first compound 5 µM) of 0.873, a relative viability (SW 900; first compound 50 µM) of 0.823 and a relative viability (SW 900; first compound 158.11 µM) of 0.33. For the same molecule, the relative viability (SW 900; first compound 500 µM) was 0.0124, the relative viability (NCI-H2342; first compound 5 µM) was 0.472 and the relative viability (NCI-H2342; first compound 15.81 µM) was 0.432. It also gave a relative viability (NCI-H2342; first compound 50 µM) of 0.5, a relative viability (NCI-H2342; first compound 158.11 µM) of 0.461 and a relative viability (NCI-H2342; first compound 500 µM) of 0.412. For the same molecule, the relative viability (Calu-6; first compound 5 µM) was 0.525, the relative viability (Calu-6; first compound 50 µM) was 0.521 and the relative viability (Calu-6; first compound 158.11 µM) was 0.433. For the same molecule, the relative viability (Calu-6; first compound 500 µM) was 0.401, the relative viability (NCI-H1703; first compound 5 µM) was 0.411 and the relative viability (NCI-H1703; first compound 15.81 µM) was 0.453. For the same molecule, the relative viability (NCI-H1703; first compound 50 µM) was 0.499, the relative viability (NCI-H1703; first compound 158.11 µM) was 0.36 and the relative viability (NCI-H1703; first compound 500 µM) was 0.403. It also gave a relative viability (NCI-H1299; first compound 5 µM) of 0.942, a relative viability (NCI-H1299; first compound 15.81 µM) of 1.01 and a relative viability (NCI-H1299; first compound 50 µM) of 0.903. For the same molecule, the relative viability (NCI-H1299; first compound 158.11 µM) was 0.909, the relative viability (NCI-H1299; first compound 500 µM) was 0.968 and the relative viability (A549; first compound 5 µM) was 0.301. The relative viability (A549; first compound 15.81 µM) was 0.371, the relative viability (A549; first compound 50 µM) was 0.301 and the relative viability (A549; first compound 158.11 µM) was 0.335. For the same molecule, the relative viability (A549; first compound 500 µM) was 0.327, the relative viability (NCI-H522; first compound 5 µM) was 0.589 and the relative viability (NCI-H522; first compound 15.81 µM) was 0.533. The relative viability (NCI-H522; first compound 50 µM) was 0.681, the relative viability (NCI-H522; first compound 158.11 µM) was 0.453 and the relative viability (NCI-H522; first compound 500 µM) was 0.346. For the same molecule, the relative viability (IA-LM; first compound 5 µM) was 0.881, the relative viability (IA-LM; first compound 15.81 µM) was 0.751 and the relative viability (IA-LM; first compound 50 µM) was 0.866. The relative viability (IA-LM; first compound 158.11 µM) was 0.537, the relative viability (IA-LM; first compound 500 µM) was 0.656 and the relative viability (EBC-1; first compound 5 µM) was 0.698. The relative viability (EBC-1; first compound 15.81 µM) was 0.33, the relative viability (EBC-1; first compound 50 µM) was 0.589 and the relative viability (EBC-1; first compound 158.11 µM) was 0.512. It also gave a relative viability (EBC-1; first compound 500 µM) of 0.49, a relative viability (NCI-H1648; first compound 5 µM) of 0.878 and a relative viability (NCI-H1648; first compound 15.81 µM) of 0.976. For the same molecule, the relative viability (NCI-H1648; first compound 50 µM) was 1.01, the relative viability (NCI-H1648; first compound 158.11 µM) was 0.255 and the relative viability (NCI-H1648; first compound 500 µM) was 0.0437.

`Cc1cnc(-c2cnc(NCCNc3ccc(C#N)cn3)nc2-c2ccc(Cl)cc2Cl)[nH]1` + NC(=O)Nc1cc(-c2cccc(F)c2)sc1C(=O)N[C@H]1CCCNC1 [AZD7762] (partner 0.2 µM) showed a relative viability (SW 900; first compound 0.08 µM) of 0.736, a relative viability (SW 900; first compound 0.253 µM) of 0.548 and a relative viability (SW 900; first compound 0.8 µM) of 0.507. It also gave a relative viability (SW 900; first compound 2.53 µM) of 0.452, a relative viability (NCI-H2342; first compound 0.08 µM) of 0.516 and a relative viability (NCI-H2342; first compound 0.253 µM) of 0.473. It also gave a relative viability (NCI-H2342; first compound 0.8 µM) of 0.484, a relative viability (NCI-H2342; first compound 2.53 µM) of 0.46 and a relative viability (NCI-H1703; first compound 0.08 µM) of 0.14. For the same molecule, the relative viability (NCI-H1703; first compound 0.253 µM) was 0.128, the relative viability (NCI-H1703; first compound 2.53 µM) was 0.13 and the relative viability (NCI-H522; first compound 0.08 µM) was 0.868. It also gave a relative viability (NCI-H522; first compound 0.253 µM) of 0.798, a relative viability (NCI-H522; first compound 0.8 µM) of 0.768 and a relative viability (NCI-H522; first compound 2.53 µM) of 0.789. It also gave a relative viability (NCI-H1648; first compound 0.08 µM) of 0.542, a relative viability (NCI-H1648; first compound 0.253 µM) of 0.579 and a relative viability (NCI-H1648; first compound 0.8 µM) of 0.643. For the same molecule, the relative viability (NCI-H1648; first compound 2.53 µM) was 0.624.

Reference: the supplement of paper PMC10307832
